The results in this text go back to ChEMBL document CHEMBL1201862, “PubChem BioAssay data set” (2004).

Some test systems named below: IGROV-1; HCT-15; OVCAR-5; T47D; RPMI-8226; MDA-MB-231; HCT-116; ACHN; NCI-H522; U-251; BT-549; 786-0; CCRF-CEM; CAKI-1; A498; LOX IMVI; HOP-62; Hs-578T; SNB-19.
Holding throughout (assay): NCI anticancer screen, dose series, 48 h

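Cells were grown in 96-well plates and exposed to each compound for 48 hours at five concentrations; endpoints were interpolated linearly between bracketing concentrations, or set to the highest concentration if not reached. GI50: concentration for 50% inhibition of growth.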 Active and inactive are the calls of the source. No stated cut-off is given here; in the data, active = GI50 up to about 1.1 µM and inactive = higher.

`c1ccc2c(c1)CC1COc3ccccc3C1O2` (stereo not given): the GI50 in the assay on IGROV-1 is 86.1 µM (inactive); with HCT-15 it was 40.2 µM; with OVCAR-5, > 100 µM (inactive); in the assay with T47D, 51.4 µM (inactive); in the assay with RPMI-8226, 27.5 µM (inactive); with MDA-MB-231, 47.4 µM (inactive). The GI50 with HCT-116 is 45.8 µM (inactive); in the assay with ACHN, 75.9 µM (inactive); in the assay with NCI-H522, 57.4 µM (inactive); in the assay with U-251 it was 54.3 µM (inactive); in the assay with BT-549, 70.3 µM (inactive); with 786-0, 50.7 µM (inactive). Moreover, the GI50 in the assay on CCRF-CEM was 73.6 µM (inactive); with CAKI-1 it was 71.3 µM (inactive); with A498, > 100 µM (inactive); with LOX IMVI, 58.7 µM (inactive); in the assay with HOP-62, 56.6 µM (inactive).

Take `CC(=O)NC(Cc1c[nH]cn1)C(=O)N1CCCC1C(N)=O` (stereo not given): the GI50 with IGROV-1 is > 100 µM (inactive); with Hs-578T, > 100 µM (inactive); in the assay with SNB-19 it was > 100 µM (inactive); with HCT-15, over 100 µM; with OVCAR-5, > 100 µM (inactive); with T47D, > 100 µM (inactive). Also, the GI50 with RPMI-8226, in the assay with MDA-MB-231, with HCT-116, in the assay on ACHN, in the assay on NCI-H522 and in the assay with U-251 was > 100 µM (inactive) each time. For the same molecule, the GI50 in the assay on BT-549, with 786-0, with CCRF-CEM, in the assay on CAKI-1, in the assay with LOX IMVI and in the assay on HOP-62 was > 100 µM (inactive) each time.

Take `CCCCC(=C=C1CCCCC1O)C1CCCN1C(=O)OC(C)(C)C` (stereo not given): the GI50 with IGROV-1 is 16.7 µM (inactive); in the assay with Hs-578T it was 19.3 µM (inactive); in the assay with SNB-19, 16.4 µM (inactive); in the assay with HCT-15, 16.4 µM; in the assay with OVCAR-5, 16 µM (inactive); in the assay with T47D it was 13.2 µM (inactive). Besides, the GI50 with RPMI-8226 is 12.6 µM (inactive); in the assay with MDA-MB-231, 16.1 µM (inactive); in the assay on HCT-116, 14.3 µM (inactive); in the assay on ACHN, 15.8 µM (inactive); with NCI-H522, 17.1 µM (inactive); in the assay with U-251, 15.9 µM (inactive). For the same molecule, the GI50 is 19.3 µM (inactive) in the assay with BT-549; 16.1 µM (inactive) with 786-0; 17.6 µM (inactive) in the assay with CCRF-CEM; 11.5 µM (inactive) in the assay on CAKI-1; 17.7 µM (inactive) in the assay with LOX IMVI; 17 µM (inactive) in the assay on HOP-62.

With `C[C@@H]1OC(=O)C[C@H]2CC(=O)N(CCC3CN(S(=O)(=O)C(F)(F)F)c4ccc(Cc5ccc6c(c5)C(CCN5C[C@H]7[C@@H](CC(=O)O[C@H]7C)CC5=O)CN6S(=O)(=O)C(F)(F)F)cc43)C[C@@H]21` (stereo not given in full), the GI50 in the assay on SNB-19 is > 100 µM (inactive); in the assay with HCT-15 it was over 100 µM; in the assay with OVCAR-5, > 100 µM (inactive); with T47D, > 100 µM (inactive); with RPMI-8226 it was > 100 µM (inactive); in the assay on MDA-MB-231, > 100 µM (inactive). Besides, the GI50 in the assay with HCT-116, in the assay with ACHN, in the assay on U-251, in the assay on BT-549, in the assay on 786-0 and in the assay with CCRF-CEM was > 100 µM (inactive) in each case. For the same molecule, the GI50 in the assay with CAKI-1, in the assay on A498, in the assay with LOX IMVI and in the assay on HOP-62 was > 100 µM (inactive) throughout.

As for `CN1C/C(=C\c2ccc(Cl)cc2)C(=O)/C(=C/c2ccc(Cl)cc2)C1`, the GI50 in the assay with IGROV-1 was 1.4 µM (inactive); in the assay on Hs-578T, 2.65 µM (inactive); in the assay on SNB-19, 1.25 µM (inactive); in the assay on HCT-15 it was 0.731 µM; in the assay on OVCAR-5, 3.34 µM (inactive); in the assay with T47D it was 4.48 µM (inactive). Moreover, the GI50 in the assay with RPMI-8226 is 0.193 µM (active); with MDA-MB-231, 1.12 µM (active); with HCT-116 it was 0.208 µM (active); in the assay on ACHN, 3.15 µM (inactive); with NCI-H522, 1.97 µM (inactive); in the assay on U-251 it was 0.454 µM (active). Besides, the GI50 with 786-0 was 0.354 µM (active); with CCRF-CEM, 0.323 µM (active); in the assay on CAKI-1 it was 1.3 µM (inactive); in the assay with A498 it was 1.55 µM (inactive); with LOX IMVI it was 0.237 µM (active); in the assay on HOP-62, 2.68 µM (inactive).

With `CN(C)/C=N\c1nncc2[nH]cnc12`, the GI50 is > 100 µM (inactive) in the assay with IGROV-1; over 100 µM in the assay on HCT-15; > 100 µM (inactive) in the assay on OVCAR-5; > 100 µM (inactive) in the assay on T47D; > 100 µM (inactive) in the assay on RPMI-8226; 87.3 µM (inactive) with HCT-116. For the same molecule, the GI50 in the assay with ACHN was > 100 µM (inactive); in the assay with NCI-H522 it was > 100 µM (inactive); in the assay on U-251, > 100 µM (inactive); in the assay on BT-549, > 100 µM (inactive); with 786-0, > 100 µM (inactive); in the assay on CCRF-CEM it was 46.1 µM (inactive). For the same molecule, the GI50 with CAKI-1 was > 100 µM (inactive); in the assay on A498, > 100 µM (inactive); in the assay with LOX IMVI, 55.8 µM (inactive); with HOP-62, 60.1 µM (inactive).

With `COc1cc(COC(=O)N2CC=CC2C(=O)O)c([N+](=O)[O-])cc1OC` (stereo not given), the GI50 is > 100 µM (inactive) in the assay on IGROV-1; > 100 µM (inactive) in the assay on Hs-578T; > 100 µM (inactive) in the assay with SNB-19; over 100 µM in the assay on HCT-15; > 100 µM (inactive) in the assay on OVCAR-5; > 100 µM (inactive) in the assay with T47D. Moreover, the GI50 with RPMI-8226, in the assay on HCT-116, with ACHN, with U-251, in the assay on BT-549 and with 786-0 was > 100 µM (inactive) each time. For the same molecule, the GI50 in the assay with CCRF-CEM, in the assay with A498 and with HOP-62 was > 100 µM (inactive) each time.

On to `N#CC(=S)Nc1ccc(Cl)c(Cl)c1`, for which the GI50 in the assay with IGROV-1 was 13.1 µM (inactive); with SNB-19, 43.8 µM (inactive); with HCT-15, 27.2 µM; in the assay with OVCAR-5, 16.4 µM (inactive); in the assay with T47D it was 27.1 µM (inactive); with RPMI-8226 it was 3.2 µM (inactive). In addition, the GI50 in the assay on MDA-MB-231 is 26.7 µM (inactive); in the assay on HCT-116, 28.8 µM (inactive); in the assay on ACHN, 33.3 µM (inactive); in the assay with U-251, 23.2 µM (inactive); with BT-549, 27 µM (inactive); with 786-0, 35.7 µM (inactive). For the same molecule, the GI50 in the assay with CCRF-CEM was 10 µM (inactive); with CAKI-1 it was 29.8 µM (inactive); in the assay with A498 it was 32.7 µM (inactive); in the assay on LOX IMVI, 26.6 µM (inactive); in the assay on HOP-62, 44 µM (inactive).
